Data published in EP1067939B1, “USE OF STEROIDAL ALKALOID DERIVATIVES AS INHIBITORS OF HEDGEHOG PROTEIN SIGNALING PATHWAYS” (The Johns Hopkins University, priority 1998, dated 1999).
Like-named read-outs stand apart in the source and are kept apart here.

Key:
His6Hh-C = molecular target: T1, His6Hh-C (Drosophila melanogaster, UniProt Q02936); experiment: In vitro Hh autoprocessing reaction with purified components; type: biochemical; conditions: for interference with cholesterol-stimulated autoprocessing: 12 µM cholesterol, 3 hours at 30° C, up to 27-fold excess to cholesterol; for His6Hh-C autocleavage reaction in the presence of compound without sterol: absence of cholesterol, up to 324 µM
T1 construct: made in house

BMP7 = experiment: Neural plate explant response to BMP7 (migratory HNK-1 positive cells); type: cell-based, chick; conditions: 100 ng/ml BMP7, ventral neural plate explants
Shh = molecular target: T2, Shh (Mus musculus, UniProt Q62226); experiment: Shh autoprocessing in stably transfected HK293 cells (immunoblot); type: cell-based
T2 construct: expressed in transfected cells; host or cells: HK293 cells, Ecdysone-Inducible Mammalian Expression System (Invitrogen)
Excerpt: To examine potential effects of these compounds on Shh processing we utilized HK293 cells cultured in lipid-depleted serum and carrying a stable integrated construct for expression of Shh under ecdysone-inducible control (47). Shh protein expression in these cells can be induced by addition of muristerone A, an ecdysone analog.
• 1. M. Hammerschmidt, A. Brook, A. P. McMahon, Trends Genet, 13, 14-21 (1997). • 2. C. Chiang, et al., Nature, 383,407-413 (1996). • 3. Y. Tanabe, T. M. Jessell, Science 274, 1115-1123 (1996). • 4. T. P. Yamaguchi, Curr. Opin. Genet. Dev. 7, 513-518 (1997). • 5. N. Shubin, C. Tabin, S. Carroll, Nature 388, 639-648 (1997). • 6. A. E. Oro, et al., Science 276, 817-821 (1997). • 7. M. M. Cohen, K. K. Sulik, J. Craniofac. Genet. Deve. Biol. 12, 196-244 (1992). • 8. E. Belloni, et al., Nature Genet. 14, 353-356 (1996). • 9. E. Roessler, et al., Nature Genet. 14, 357-360 (1996). • 10. J. A. Porter, et al., Nature 374, 363-366 (1995). • 11. J. A. Porter, K. E. Young, P. A. Beacy, Science 274, 255-259 (1996b). • 12. J. J. Lee, et al., Science 266, 1528-1537 (1994). • 13. J. A. Porter, et al., Cell 86, 21-34 (1996a). • 14. C. Roux, Arch. Franc. Pediatr. 21, 451-464 (1964). • 15. C. Roux, C. R. Soc. Biol. 160, 1353-1357 (1966). • 16. D. B. Dehart, L. Lanoue, G. S. Tinit, K. K. Sulik, Am J. Med. Genet. 68, 328-337 (1997). • 17. M. Kraml, J. F. Bagli, D. Dvornik, Biochem. and Biophysical Res. Com. 15, 455-457 (1964). • 18. J. Avigan, D. Steinberg, H. E. Vroman, M. J. Thompson, E. Mosettig, J. Biol. Chem 235, 3123-3126 (1960). • 19. R. B. Clayton, A. N. Nelson, I. D. Frantz Jr., J. Lipid Res. 4, 166-178 (1963). • 20. J. Aufenanger, J. Pill, K. Stegmeier, F. H. Schmidt, Horm. Metabol. Res. 17, 612-613 (1986). • 21. […] G. Popjak, A. Meenean, E. J. Parish, W. D. Nes, J. Biol. Chem 264,6230-6238 (1989). • 23. H. Yoshikawa, Brain Deve. 13, 115-120 (1991). • 24. R. I. Kelley, et al., Am. J. Of Med. Gen. 66, 478-484 (1996). • 25. G. S. Tint, et al., New England Journal of Medicine 330, 107-113 (1994). • 26. T.E. Willnow, et al., Proc. Natl. Acad. Sci USA 93, 8460-8464 (1996). • 27. S. Stefansson, D. A. Chappell, K. M. Argraves, D. K. Strickland, W. S. Argraves, J. Biol. Chem. 270, 19417-19421 (1995). • 28. W. Binns, L. F. James, J. L. Shupe, G. Everett, Am. J. Vet. Res. 24, 1164-1174 (1963). • 29. R. F. Keeler, W. Binns, Teratology 1, 5-10 (1968). • 30. P. A. Beachy, et al., CSH Symp. Quant. Biol. 62, in press (1997). • 31. E. D. Carstea, et al., Science 277, 228-231 (1997). • 32. S. K. Loftus, et al., Science 277, 232-235 […]. • 33. L. V. Goodrich, L. Milenkovic, K. M. Higgins, M. P. Scott, Science 277, 1109-1113 (1997). • 34. H. Kumagai, K. T. Chun, R. D. Simoni, J. Biol. Chem. 270, 19107-19113 (1995). • 35. G. Gil, J. R. Faust, D. J. Chin, J. L. Goldstien, M. S. Brown, Cell 41, 249-258 (1985). • 36. X. Hua, A. Nohturfft, J. L. Goldstein, M. S. Brown, Cell 87, 415-426 (1996). • 37. M. S. Brown, J. L. Goldstein, Cell 89, 331-340 (1997). • 38. M. M. Bryden, C. Perry, R. F. Keeler, Teratology 8, 18-28 (1973). • 39. M. L. Omnell, F. R. P. Sim, R. F. Keeler, L. C. Harne, K. W. Brown, Teratology 42, 105-119 (1990). • 40. Fertile chick eggs (white leghorn) were placed in a humidified incubator at 37.5° C in a rotating tray for 14 hours. […] The window was taped and the eggs incubated for an additional 4 days. The embryos were dissected in phosphate buffered saline (PBS, pH 7.2).

T1 sequence (Q02936 252-471): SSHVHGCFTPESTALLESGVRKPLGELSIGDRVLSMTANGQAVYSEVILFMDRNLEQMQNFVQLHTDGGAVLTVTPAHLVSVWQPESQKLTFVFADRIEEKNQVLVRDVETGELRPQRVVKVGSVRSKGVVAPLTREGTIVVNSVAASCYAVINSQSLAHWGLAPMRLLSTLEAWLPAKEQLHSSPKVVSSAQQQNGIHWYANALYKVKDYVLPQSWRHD
T2 sequence (Q62226 25-437): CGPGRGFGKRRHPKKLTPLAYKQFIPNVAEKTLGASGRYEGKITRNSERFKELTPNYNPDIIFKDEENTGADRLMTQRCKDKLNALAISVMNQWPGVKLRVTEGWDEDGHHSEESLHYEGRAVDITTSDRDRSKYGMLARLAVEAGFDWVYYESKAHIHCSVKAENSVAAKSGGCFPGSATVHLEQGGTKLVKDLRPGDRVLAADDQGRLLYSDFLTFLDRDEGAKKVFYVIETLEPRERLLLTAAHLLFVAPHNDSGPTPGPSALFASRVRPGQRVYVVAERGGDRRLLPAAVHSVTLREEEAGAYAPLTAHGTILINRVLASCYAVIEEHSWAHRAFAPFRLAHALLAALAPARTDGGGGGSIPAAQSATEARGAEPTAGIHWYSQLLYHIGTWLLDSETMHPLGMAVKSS

| Compound | interference with cholesterol-stimulated autoprocessing (His6Hh-C) | His6Hh-C autocleavage reaction in the presence of compound without sterol (His6Hh-C) | Induction of migratory HNK-1 positive cells by BMP7 (BMP7; 10 µM) | Shh-Np production and accumulation of unprocessed precursor (Shh) | Induction of migratory HNK-1 positive cells by BMP7 (BMP7; 50 µM) | Shh-Np production and accumulation of unprocessed precursor (Shh; added during the 24-hour induction period, doses up to 5-fold higher than those required to completely inhibit Shh signaling) | slower migrating Shh species, signal sequence cleavage (Shh; species ∼ 1.9 kD larger, lanes 10, 11) |
| --- | --- | --- | --- | --- | --- | --- | --- |
| CC1=C2C[C@H]3[C@@H](CC=C4C[C@@H](O)CC[C@@]43C)[C@@H]2CC[C@]12O[C@@H]1C[C@H](C)CN[C@H]1[C@H]2C [Cyclopamine, cyclopamine] | does not interfere with autoprocessing | does not proceed | not inhibited | did not diminish Shh-Np production nor induce accumulation of unprocessed precursor |  |  |  |
| C[C@H]1CC[C@]2(NC1)O[C@H]1C[C@H]3[C@@H]4CC[C@H]5C[C@@H](O)CC[C@]5(C)[C@H]4CC[C@]3(C)[C@H]1[C@@H]2C [Tomatidine, tomatidine] | does not interfere with autoprocessing | does not proceed |  |  | not inhibited | did not diminish Shh-Np production nor induce accumulation of unprocessed precursor | minor inhibition of signal sequence cleavage |
